Source: patent publication US11331369B2, “Endoparasitic depsipeptides” (Zoetis Services LLC, priority 2017, dated 2022)

Key:
[1] = system: microfilariae of Dirofilaria immitis; assay: Dirofilaria immitis, Microfilaria (DiMF) In vitro Assay; type: cell-based; details: 72 h, read-out: DiMF Minimum Effective Dose (MED), approximately 72 hours incubation, microfilariae assessed for survival or paralysis
[2] = system: 4th stage larvae (L4) of Dirofilaria immitis; assay: Dirofilaria immitis, L4 Stage (DiL4) In Vitro Assay; type: cell-based; details: Dirofilaria immitis, 72 h, read-out: DiL4 Minimum Effective Dose (MED), approximately 72 hours incubation; L4 larvae assessed for survival or paralysis

## COc1ccc(-c2ccnn2Cc2ccc(C[C@H]3OC(=O)[C@H](CC(C)C)N(C)C(=O)[C@@H](C)OC(=O)[C@H](CC(C)C)N(C)C(=O)[C@@H](Cc4ccc(Cn5nccc5-c5ccc(OC)cc5)cc4)OC(=O)[C@H](CC(C)C)N(C)C(=O)[C@@H](C)OC(=O)[C@H](CC(C)C)N(C)C3=O)cc2)cc1 [Example 1b-149, (3S,6R,9S,12R,15S,18R,21S,24R)-3,9,15,21-tetraisobutyl-6,18-bis(4-((5-(4-methoxyphenyl)-1H-pyrazol-1-yl)methyl)benzyl)-4,10,12,16,22,24-hexamethyl-1,7,13,19-tetraoxa-4,10,16,22-tetraazacyclotetracosan-2,5,8,11,14,17,20,23-octaone]
[1]
  minimal effective concentration: 0.01 to 0.1 µM
[2]
  minimal effective concentration: 0.001 to 0.01 µM

## CC(C)C[C@H]1C(=O)O[C@H](Cc2ccc(Cn3cc(OCC(F)(F)F)cn3)cc2)C(=O)N(C)[C@@H](CC(C)C)C(=O)O[C@H](C)C(=O)N(C)[C@@H](CC(C)C)C(=O)O[C@H](Cc2ccc(Cn3cc(OCC(F)(F)F)cn3)cc2)C(=O)N(C)[C@@H](CC(C)C)C(=O)O[C@H](C)C(=O)N1C [Example 1b-150, (3S,6R,9S,12R,15S,18R,21S,24R)-3,9,15,21-tetraisobutyl-4,6,10,16,18,22-hexamethyl-12,24-bis(4-((4-(2,2,2-trifluoroethoxy)-1H-pyrazol-1-yl)methyl)benzyl)-1,7,13,19-tetraoxa-4,10,16,22-tetraazacyclotetracosan-2,5,8,11,14,17,20,23-octaone]
[1]
  minimal effective concentration: 0.001 to 0.01 µM
[2]
  minimal effective concentration: 0.0001 to 0.001 µM

## Cc1cnn(Cc2ccc(C[C@H]3OC(=O)[C@H](CC(C)C)N(C)C(=O)[C@@H](C)OC(=O)[C@H](CC(C)C)N(C)C(=O)[C@@H](Cc4ccc(Cn5ncc(C)c5C)cc4)OC(=O)[C@H](CC(C)C)N(C)C(=O)[C@@H](C)OC(=O)[C@H](CC(C)C)N(C)C3=O)cc2)c1C [Example 1b-152, (3S,6R,9S,12R,15S,18R,21S,24R)-6,18-bis(4-((4,5-dimethyl-1H-pyrazol-1-yl)methyl)benzyl)-3,9,15,21-tetraisobutyl-4,10,12,16,22,24-hexamethyl-1,7,13,19-tetraoxa-4,10,16,22-tetraazacyclotetracosan-2,5,8,11,14,17,20,23-octaone]
[1]
  minimal effective concentration: 0.001 to 0.01 µM
[2]
  minimal effective concentration: 0.001 to 0.01 µM

## CC(C)C[C@H]1C(=O)O[C@H](Cc2ccc(Cn3nccc3C3CCCC3)cc2)C(=O)N(C)[C@@H](CC(C)C)C(=O)O[C@H](C)C(=O)N(C)[C@@H](CC(C)C)C(=O)O[C@H](Cc2ccc(Cn3nccc3C3CCCC3)cc2)C(=O)N(C)[C@@H](CC(C)C)C(=O)O[C@H](C)C(=O)N1C [Example 1b-154, (3S,6R,9S,12R,15S,18R,21S,24R)-6,18-bis(4-((5-cyclopentyl-1H-pyrazol-1-yl)methyl)benzyl)-3,9,15,21-tetraisobutyl-4,10,12,16,22,24-hexamethyl-1,7,13,19-tetraoxa-4,10,16,22-tetraazacyclotetracosan-2,5,8,11,14,17,20,23-octaone]
[1]
  minimal effective concentration: 0.001 to 0.01 µM
[2]
  minimal effective concentration: ≤ 0.0001 µM

## COCc1cnn(Cc2ccc(C[C@H]3OC(=O)[C@H](CC(C)C)N(C)C(=O)[C@@H](C)OC(=O)[C@H](CC(C)C)N(C)C(=O)[C@@H](Cc4ccc(Cn5cc(COC)cn5)cc4)OC(=O)[C@H](CC(C)C)N(C)C(=O)[C@@H](C)OC(=O)[C@H](CC(C)C)N(C)C3=O)cc2)c1 [Example 1b-155, (3S,6R,9S,12R,15S,18R,21S,24R)-3,9,15,21-tetraisobutyl-6,18-bis(4-((4-(methoxymethyl)-1H-pyrazol-1-yl)methyl)benzyl)-4,10,12,16,22,24-hexamethyl-1,7,13,19-tetraoxa-4,10,16,22-tetraazacyclotetracosan-2,5,8,11,14,17,20,23-octaone]
[1]
  minimal effective concentration: 0.001 to 0.01 µM
[2]
  minimal effective concentration: 0.001 to 0.01 µM

## CC(C)COc1cnn(Cc2ccc(C[C@H]3OC(=O)[C@H](CC(C)C)N(C)C(=O)[C@@H](C)OC(=O)[C@H](CC(C)C)N(C)C(=O)[C@@H](Cc4ccc(Cn5cc(OCC(C)C)cn5)cc4)OC(=O)[C@H](CC(C)C)N(C)C(=O)[C@@H](C)OC(=O)[C@H](CC(C)C)N(C)C3=O)cc2)c1 [Example 1b-172, (3S,6R,9S,12R,15S,18R,21S,24R)-6,18-bis(4-((4-isobutoxy-1H-pyrazol-1-yl)methyl)benzyl)-3,9,15,21-tetraisobutyl-4,10,12,16,22,24-hexamethyl-1,7,13,19-tetraoxa-4,10,16,22-tetraazacyclotetracosan-2,5,8,11,14,17,20,23-octaone]
[1]
  minimal effective concentration: 0.01 to 0.1 µM
[2]
  minimal effective concentration: 0.001 to 0.01 µM

## CC(C)C[C@H]1C(=O)O[C@H](Cc2ccc(Cn3cc(Oc4nccs4)cn3)cc2)C(=O)N(C)[C@@H](CC(C)C)C(=O)O[C@H](C)C(=O)N(C)[C@@H](CC(C)C)C(=O)O[C@H](Cc2ccc(Cn3cc(Oc4nccs4)cn3)cc2)C(=O)N(C)[C@@H](CC(C)C)C(=O)O[C@H](C)C(=O)N1C [Example 1b-174, (3S,6R,9S,12R,15S,18R,21S,24R)-3,9,15,21-tetraisobutyl-4,6,10,16,18,22-hexamethyl-12,24-bis(4-((4-(thiazol-2-yloxy)-1H-pyrazol-1-yl)methyl)benzyl)-1,7,13,19-tetraoxa-4,10,16,22-tetraazacyclotetracosan-2,5,8,11,14,17,20,23-octaone]
[1]
  minimal effective concentration: 0.001 to 0.01 µM
[2]
  minimal effective concentration: 0.001 to 0.01 µM

## CC(C)C[C@H]1C(=O)O[C@H](Cc2ccc(Cn3cc(Oc4ccccn4)cn3)cc2)C(=O)N(C)[C@@H](CC(C)C)C(=O)O[C@H](C)C(=O)N(C)[C@@H](CC(C)C)C(=O)O[C@H](Cc2ccc(Cn3cc(Oc4ccccn4)cn3)cc2)C(=O)N(C)[C@@H](CC(C)C)C(=O)O[C@H](C)C(=O)N1C [Example 1b-175, (3S,6R,9S,12R,15S,18R,21S,24R)-3,9,15,21-tetraisobutyl-4,6,10,16,18,22-hexamethyl-12,24-bis(4-((4-(pyridin-2-yloxy)-1H-pyrazol-1-yl)methyl)benzyl)-1,7,13,19-tetraoxa-4,10,16,22-tetraazacyclotetracosan-2,5,8,11,14,17,20,23-octaone]
[1]
  minimal effective concentration: 0.001 to 0.01 µM
[2]
  minimal effective concentration: 0.001 to 0.01 µM

## Cc1cc(C2CC2)n(Cc2ccc(C[C@H]3OC(=O)[C@H](CC(C)C)N(C)C(=O)[C@@H](C)OC(=O)[C@H](CC(C)C)N(C)C(=O)[C@@H](Cc4ccc(Cn5nc(C)cc5C5CC5)cc4)OC(=O)[C@H](CC(C)C)N(C)C(=O)[C@@H](C)OC(=O)[C@H](CC(C)C)N(C)C3=O)cc2)n1 [Example 1b-181, (3S,6R,9S,12R,15S,18R,21S,24R)-6,18-bis(4-((5-cyclopropyl-3-methyl-1H-pyrazol-1-yl)methyl)benzyl)-3,9,15,21-tetraisobutyl-4,10,12,16,22,24-hexamethyl-1,7,13,19-tetraoxa-4,10,16,22-tetraazacyclotetracosan-2,5,8,11,14,17,20,23-octaone]
[1]
  minimal effective concentration: 0.01 to 0.1 µM
[2]
  minimal effective concentration: 0.001 to 0.01 µM

## CC(C)C[C@H]1C(=O)O[C@H](Cc2ccc(Cn3cc(COC(C)C)cn3)cc2)C(=O)N(C)[C@@H](CC(C)C)C(=O)O[C@H](C)C(=O)N(C)[C@@H](CC(C)C)C(=O)O[C@H](Cc2ccc(Cn3cc(COC(C)C)cn3)cc2)C(=O)N(C)[C@@H](CC(C)C)C(=O)O[C@H](C)C(=O)N1C [Example 1b-184, (3S,6R,9S,12R,15S,18R,21S,24R)-3,9,15,21-tetraisobutyl-6,18-bis(4-((4-(isopropoxymethyl)-1H-pyrazol-1-yl)methyl)benzyl)-4,10,12,16,22,24-hexamethyl-1,7,13,19-tetraoxa-4,10,16,22-tetraazacyclotetracosan-2,5,8,11,14,17,20,23-octaone]
[1]
  minimal effective concentration: 0.001 to 0.01 µM
[2]
  minimal effective concentration: 0.001 to 0.01 µM

## CCCc1ccnn1Cc1ccc(C[C@H]2OC(=O)[C@H](CC(C)C)N(C)C(=O)[C@@H](C)OC(=O)[C@H](CC(C)C)N(C)C(=O)[C@@H](Cc3ccc(Cn4nccc4CCC)cc3)OC(=O)[C@H](CC(C)C)N(C)C(=O)[C@@H](C)OC(=O)[C@H](CC(C)C)N(C)C2=O)cc1 [Example 1b-205, (3S,6R,9S,12R,15S,18R,21S,24R)-3,9,15,21-tetraisobutyl-4,6,10,16,18,22-hexamethyl-12,24-bis(4-((5-propyl-1H-pyrazol-1-yl)methyl)benzyl)-1,7,13,19-tetraoxa-4,10,16,22-tetraazacyclotetracosan-2,5,8,11,14,17,20,23-octaone]
[1]
  minimal effective concentration: 0.001 to 0.01 µM
[2]
  minimal effective concentration: 0.0001 to 0.001 µM

## CC(C)Cc1ccnn1Cc1ccc(C[C@H]2OC(=O)[C@H](CC(C)C)N(C)C(=O)[C@@H](C)OC(=O)[C@H](CC(C)C)N(C)C(=O)[C@@H](Cc3ccc(Cn4nccc4CC(C)C)cc3)OC(=O)[C@H](CC(C)C)N(C)C(=O)[C@@H](C)OC(=O)[C@H](CC(C)C)N(C)C2=O)cc1 [Example 1b-209, (3S,6R,9S,12R,15S,18R,21S,24R)-3,9,15,21-tetraisobutyl-6,18-bis(4-((5-isobutyl-1H-pyrazol-1-yl)methyl)benzyl)-4,10,12,16, 22,24-hexamethyl-1,7,13,19-tetraoxa-4,10,16,22-tetraazacyclotetracosan-2,5,8,11,14,17,20,23-octaone]
[1]
  minimal effective concentration: 0.01 to 0.1 µM
[2]
  minimal effective concentration: 0.0001 to 0.001 µM

## CC(C)C[C@H]1C(=O)O[C@H](Cc2ccc(Cn3cc(C#N)cn3)cc2)C(=O)N(C)[C@@H](CC(C)C)C(=O)O[C@H](C)C(=O)N(C)[C@@H](CC(C)C)C(=O)O[C@H](Cc2ccccc2)C(=O)N(C)[C@@H](CC(C)C)C(=O)O[C@H](C)C(=O)N1C [Example 2-10, 1-(4-(((2R,5S,8R,11S,14R,17S,20R,23S)-14-benzyl-5,11,17,23-tetraisobutyl-4,8,10,16,20,22-hexamethyl-3,6,9,12,15,18,21,24-octaoxo-1,7,13,19-tetraoxa-4,10,16,22-tetraazacyclotetracosan-2-yl)methyl)benzyl)-1H-pyrazole-4-carbonitrile]
[1]
  minimal effective concentration: 0.001 to 0.01 µM
[2]
  minimal effective concentration: 0.0001 to 0.001 µM
